Results published in ChEMBL document CHEMBL1201862, “PubChem BioAssay data set” (2004).
The source made the active and inactive calls.

What was measured:
HeLa = experiment: Cytotoxicity counterscreen assay for transcriptional activators of heat shock protein 70 (Hsp70). [Related pubchem assays: 1203, 1252 ]; format: functional; conditions: Homo sapiens;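 further: cells exposed to compound for 16 hours before readout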
Vasopressin V1a receptor = Vasopressin V1a receptor (Homo sapiens, UniProt P37288); experiment: Fluorescence-based cell-based high throughput dose response screening assay for agonists of the vasopressin 1 receptor (V1R).; format: functional
Oxytocin receptor = Oxytocin receptor (Homo sapiens, UniProt P30559); experiment: Counterscreen for vasopressin 1 receptor (V1R) agonists: Fluorescence-based cell-based high throughput dose response assay for agonists of the Oxytocin Receptor (OXTR). [Related pubchem assays: 2435 (Primary screen (OXTR agonists in singlicate)), 434964 (Confirmation screen (V1R agonists in triplicate)), 434969 (Counterscreen (OXTR agonists in …; format: functional
[1] = biological target: T1, RNA-binding protein pos-1 (Caenorhabditis elegans, UniProt G5EF15); experiment: disruptors of C. elegans POS-1 RNA interaction – biochemical, fluorescence polarization, dose response (AID 1964);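 further: purified POS-1 fused to maltose binding protein made in E. coli; potency of compounds blocking POS-1 binding to fluorescent RNA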
T1 sequence (G5EF15 whole entry): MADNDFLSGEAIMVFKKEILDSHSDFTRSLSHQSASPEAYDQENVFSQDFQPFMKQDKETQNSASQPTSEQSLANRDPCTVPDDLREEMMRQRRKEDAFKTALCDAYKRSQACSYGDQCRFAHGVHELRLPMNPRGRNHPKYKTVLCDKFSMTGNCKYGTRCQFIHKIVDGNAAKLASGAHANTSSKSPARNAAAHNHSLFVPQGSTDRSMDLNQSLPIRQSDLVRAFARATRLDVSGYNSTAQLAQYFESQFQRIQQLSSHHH

[2] = biological target: T2, Zinc finger protein mex-5 (Caenorhabditis elegans, UniProt Q9XUB2); experiment: potency of MEX-5 RNA-binding blockers – biochemical, C. elegans, fluorescence polarization, dose response (AID 1960)
T2 sequence (Q9XUB2 whole entry): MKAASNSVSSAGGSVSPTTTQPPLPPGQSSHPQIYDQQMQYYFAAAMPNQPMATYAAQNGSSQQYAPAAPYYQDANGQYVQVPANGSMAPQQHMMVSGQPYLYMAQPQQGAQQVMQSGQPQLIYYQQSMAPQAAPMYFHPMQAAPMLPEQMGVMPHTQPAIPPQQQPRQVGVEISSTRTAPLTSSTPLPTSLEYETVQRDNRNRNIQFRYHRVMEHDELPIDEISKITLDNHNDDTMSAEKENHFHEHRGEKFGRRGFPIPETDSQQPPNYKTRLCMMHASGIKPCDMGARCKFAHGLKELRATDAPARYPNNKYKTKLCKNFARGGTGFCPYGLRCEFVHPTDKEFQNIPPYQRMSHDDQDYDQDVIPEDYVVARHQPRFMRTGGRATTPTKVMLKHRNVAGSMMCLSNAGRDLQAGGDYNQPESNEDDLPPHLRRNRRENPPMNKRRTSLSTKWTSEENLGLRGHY

Estrogen receptor = biological target: T3, Estrogen receptor (Homo sapiens, UniProt P03372); experiment: ERα coactivator recruitment enhancers – biochemical, TR-FRET, ERα LBD, dose response (AID 737)
T3 sequence (P03372 whole entry): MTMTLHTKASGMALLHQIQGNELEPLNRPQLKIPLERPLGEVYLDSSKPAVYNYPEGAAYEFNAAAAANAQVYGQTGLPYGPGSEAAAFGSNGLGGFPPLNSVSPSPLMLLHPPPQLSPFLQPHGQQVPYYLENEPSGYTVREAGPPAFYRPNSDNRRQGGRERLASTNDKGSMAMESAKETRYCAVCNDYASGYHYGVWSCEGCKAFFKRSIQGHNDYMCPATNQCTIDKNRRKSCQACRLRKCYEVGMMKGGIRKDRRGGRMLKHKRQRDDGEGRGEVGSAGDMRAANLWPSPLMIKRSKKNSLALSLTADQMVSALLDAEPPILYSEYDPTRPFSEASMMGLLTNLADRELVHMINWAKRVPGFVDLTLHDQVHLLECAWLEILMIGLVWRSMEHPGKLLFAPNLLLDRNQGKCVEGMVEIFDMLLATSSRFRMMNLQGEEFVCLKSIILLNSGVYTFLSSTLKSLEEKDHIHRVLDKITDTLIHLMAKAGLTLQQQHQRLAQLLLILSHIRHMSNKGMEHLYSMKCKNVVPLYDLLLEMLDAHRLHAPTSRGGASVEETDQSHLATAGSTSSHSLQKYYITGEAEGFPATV

Melanocortin receptor 4 = Melanocortin receptor 4 (Homo sapiens, UniProt P32245); format: functional, cell-based;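 further: Cell-based assay with luminescence read-out, confirmatory dose-response testing for agonist activity of biased ligands at MC4R; human U2OS cells with tagged receptor and beta-arrestin; potency of agonists that increase receptor coupling to beta-arrestin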
[3] = biological target: Eukaryotic translation initiation factor 4H (Homo sapiens, UniProt Q15056); experiment: eIF4H binding inhibition – biochemical, uHTS, fluorescence polarization, translation initiation inhibitor project, primary screen (AID 2012)
[4] = biological target: DNA dC->dU-editing enzyme APOBEC-3G (Homo sapiens, UniProt Q9HC16); format: functional;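 further: Dose-response counterscreen measuring inhibition of APOBEC3G DNA deaminase activity, run while confirming APOBEC3A inhibitors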
[5] = biological target: Polyadenylate-binding protein 1 (Homo sapiens, UniProt P11940); experiment: blockers of PABP interaction with poly(A) – biochemical, fluorescence polarization, […] (AID 2014)
[6] = biological target: DNA dC->dU-editing enzyme APOBEC-3A (Homo sapiens, UniProt P31941); experiment: Dose Response confirmation of small molecule APOBEC3A DNA Deaminase Inhibitors via a fluorescence-based single-stranded DNA deaminase assay. [Related pubchem assays (depositor defined):AID493011, AID493024]; format: functional
[7] = biological target: Sphingosine 1-phosphate receptor 1 (Homo sapiens, UniProt P21453); format: functional;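 further: Tango beta-arrestin reporter U2OS cells stimulated with S1P near its EC80; inhibitor potency meaning antagonism of receptor activation by the natural agonist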
[8] = biological target: Sphingosine 1-phosphate receptor 4 (Homo sapiens, UniProt O95977); experiment: Fluorescence dose response cell-based high throughput screening assay for antagonists of the Sphingosine 1-Phosphate Receptor 4 (S1P4). [Related pubchem assays: 1524 (Confirmation in triplicates.), 1510 (Primary screen.)]; format: functional
[9] = microbe, parasite or virus in culture; format: functional; conditions: Mycobacterium tuberculosis
[10] = biological target: Heat shock protein HSP 90-alpha (Homo sapiens, UniProt P07900); format: functional, organism-based
[11] = biological target: T4, Heat shock factor protein 1 (Mus musculus, UniProt P38532); experiment: decrease of HSF1-responsive luciferase luminescence – cell-based, NIH3T3, dose retest, confirmation (AID 2382); format: functional;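 further: NIH3T3 fibroblasts with HSF1-driven luciferase reporter stressed by proteasome inhibitor MG132; luminescence from HSF1-driven luciferase expression after 8 hours of MG132 stress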
T4 sequence (P38532 whole entry): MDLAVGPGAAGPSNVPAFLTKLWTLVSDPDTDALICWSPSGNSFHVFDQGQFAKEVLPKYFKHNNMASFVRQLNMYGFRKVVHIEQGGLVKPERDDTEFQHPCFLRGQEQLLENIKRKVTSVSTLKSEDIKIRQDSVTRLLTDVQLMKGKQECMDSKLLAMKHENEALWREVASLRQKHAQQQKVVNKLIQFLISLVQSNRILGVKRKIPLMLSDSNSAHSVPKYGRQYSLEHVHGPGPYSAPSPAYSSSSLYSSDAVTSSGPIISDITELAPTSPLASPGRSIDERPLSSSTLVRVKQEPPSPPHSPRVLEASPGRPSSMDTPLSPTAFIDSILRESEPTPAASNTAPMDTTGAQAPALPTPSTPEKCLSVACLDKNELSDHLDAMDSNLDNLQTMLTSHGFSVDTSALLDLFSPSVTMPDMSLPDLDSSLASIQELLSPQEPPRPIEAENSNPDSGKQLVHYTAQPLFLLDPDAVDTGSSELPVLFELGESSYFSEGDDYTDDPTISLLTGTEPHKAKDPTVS

INS1 = experiment: INS-1E survival protection against cytokine death – cell-based, luminescence, retest, dose response (AID 449756); format: functional; conditions: Rattus norvegicus;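 further: cell death triggered by IL-1 beta plus TNF-alpha plus IFN-gamma mixture; protective hits raise ATP signal compared with cytokine alone wells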
[12] = fluconazole-exposed Candida albicans growth modulators – fluorescence, retest, confirmation (AID 2467); format: functional, cell-based
[13] = NIH-3T3 fibroblast cytotoxicity, dose response, cytotoxicity control, cell-based, fluorescence, Alamar Blue, secondary assay (AID 2327); format: functional;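 further: NIH-3T3 mouse fibroblasts cultured with fluconazole at 8 µg/mL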

Sequence of Melanocortin receptor 4 (P32245 whole entry): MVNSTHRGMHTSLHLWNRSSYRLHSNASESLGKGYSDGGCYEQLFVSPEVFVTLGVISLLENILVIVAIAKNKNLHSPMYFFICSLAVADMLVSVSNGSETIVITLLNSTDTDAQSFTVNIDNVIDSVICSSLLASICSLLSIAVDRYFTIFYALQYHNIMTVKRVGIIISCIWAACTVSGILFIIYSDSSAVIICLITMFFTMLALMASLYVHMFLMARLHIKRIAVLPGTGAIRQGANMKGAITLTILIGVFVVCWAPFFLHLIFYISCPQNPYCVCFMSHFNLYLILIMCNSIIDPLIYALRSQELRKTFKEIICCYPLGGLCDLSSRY
Sequence of DNA dC->dU-editing enzyme APOBEC-3A (P31941 whole entry): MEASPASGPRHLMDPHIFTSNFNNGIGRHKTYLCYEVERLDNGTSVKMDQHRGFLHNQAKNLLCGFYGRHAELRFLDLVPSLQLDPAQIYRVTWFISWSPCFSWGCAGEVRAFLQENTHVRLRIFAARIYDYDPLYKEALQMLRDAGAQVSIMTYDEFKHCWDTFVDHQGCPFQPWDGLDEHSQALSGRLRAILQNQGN
Sequence of DNA dC->dU-editing enzyme APOBEC-3G (Q9HC16 whole entry): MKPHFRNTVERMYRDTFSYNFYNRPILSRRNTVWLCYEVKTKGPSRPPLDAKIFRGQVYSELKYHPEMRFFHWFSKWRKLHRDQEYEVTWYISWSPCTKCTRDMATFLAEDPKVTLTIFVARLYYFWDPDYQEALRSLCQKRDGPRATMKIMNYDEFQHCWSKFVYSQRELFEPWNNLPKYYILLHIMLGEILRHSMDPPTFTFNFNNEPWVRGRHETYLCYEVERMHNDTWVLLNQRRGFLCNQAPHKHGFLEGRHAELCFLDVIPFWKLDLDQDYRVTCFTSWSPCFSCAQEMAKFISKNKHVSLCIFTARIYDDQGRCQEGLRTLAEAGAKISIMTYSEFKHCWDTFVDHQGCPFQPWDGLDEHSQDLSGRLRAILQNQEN
Sequence of Sphingosine 1-phosphate receptor 1 (P21453 whole entry): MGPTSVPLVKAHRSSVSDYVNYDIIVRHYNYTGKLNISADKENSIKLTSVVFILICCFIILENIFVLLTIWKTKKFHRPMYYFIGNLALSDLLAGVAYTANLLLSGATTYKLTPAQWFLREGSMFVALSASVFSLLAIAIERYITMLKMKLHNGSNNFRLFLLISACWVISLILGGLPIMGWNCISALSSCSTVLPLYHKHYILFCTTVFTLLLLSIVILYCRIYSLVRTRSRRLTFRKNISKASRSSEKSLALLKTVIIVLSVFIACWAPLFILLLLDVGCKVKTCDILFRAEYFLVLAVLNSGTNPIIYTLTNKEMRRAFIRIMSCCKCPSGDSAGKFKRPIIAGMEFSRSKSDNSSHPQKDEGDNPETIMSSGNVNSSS
Sequence of Sphingosine 1-phosphate receptor 4 (O95977 whole entry): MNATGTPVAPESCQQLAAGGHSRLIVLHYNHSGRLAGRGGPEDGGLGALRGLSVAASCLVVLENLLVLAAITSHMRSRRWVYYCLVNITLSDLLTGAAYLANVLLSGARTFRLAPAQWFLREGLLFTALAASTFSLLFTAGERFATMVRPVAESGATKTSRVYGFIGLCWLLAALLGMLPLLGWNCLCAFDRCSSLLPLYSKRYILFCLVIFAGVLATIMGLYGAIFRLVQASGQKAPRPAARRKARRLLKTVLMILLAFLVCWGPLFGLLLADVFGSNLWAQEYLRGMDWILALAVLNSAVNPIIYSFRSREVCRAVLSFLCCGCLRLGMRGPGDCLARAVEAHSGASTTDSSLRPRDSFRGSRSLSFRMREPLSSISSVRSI
Sequence of Vasopressin V1a receptor (P37288 whole entry): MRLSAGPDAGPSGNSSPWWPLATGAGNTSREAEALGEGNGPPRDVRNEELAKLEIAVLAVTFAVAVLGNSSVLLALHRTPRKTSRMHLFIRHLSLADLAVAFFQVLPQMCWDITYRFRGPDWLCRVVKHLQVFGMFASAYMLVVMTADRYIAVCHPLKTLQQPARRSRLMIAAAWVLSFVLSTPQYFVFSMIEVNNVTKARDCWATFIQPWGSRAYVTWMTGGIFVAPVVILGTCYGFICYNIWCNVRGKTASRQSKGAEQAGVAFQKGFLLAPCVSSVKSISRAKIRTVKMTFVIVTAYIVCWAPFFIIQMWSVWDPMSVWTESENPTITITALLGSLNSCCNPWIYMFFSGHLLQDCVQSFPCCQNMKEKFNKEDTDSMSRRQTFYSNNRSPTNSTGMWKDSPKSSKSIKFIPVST
Sequence of Polyadenylate-binding protein 1 (P11940 whole entry): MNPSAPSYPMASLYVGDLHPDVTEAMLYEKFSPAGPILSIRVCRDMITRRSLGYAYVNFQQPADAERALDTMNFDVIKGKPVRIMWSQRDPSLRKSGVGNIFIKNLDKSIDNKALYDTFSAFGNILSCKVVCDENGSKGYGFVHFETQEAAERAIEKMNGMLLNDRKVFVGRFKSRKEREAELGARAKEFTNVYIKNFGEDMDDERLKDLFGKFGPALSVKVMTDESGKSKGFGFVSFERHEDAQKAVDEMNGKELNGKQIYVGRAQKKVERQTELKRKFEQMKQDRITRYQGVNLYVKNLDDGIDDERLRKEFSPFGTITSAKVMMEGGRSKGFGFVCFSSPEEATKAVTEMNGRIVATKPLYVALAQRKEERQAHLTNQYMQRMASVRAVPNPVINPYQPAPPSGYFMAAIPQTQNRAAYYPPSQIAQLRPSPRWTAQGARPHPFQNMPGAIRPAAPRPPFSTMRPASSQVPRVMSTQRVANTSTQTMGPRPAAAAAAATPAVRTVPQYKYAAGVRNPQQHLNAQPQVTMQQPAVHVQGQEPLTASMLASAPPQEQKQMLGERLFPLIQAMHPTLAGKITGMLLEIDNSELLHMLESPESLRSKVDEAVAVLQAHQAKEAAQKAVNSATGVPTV
Sequence of Oxytocin receptor (P30559 whole entry, the tested form may be a part): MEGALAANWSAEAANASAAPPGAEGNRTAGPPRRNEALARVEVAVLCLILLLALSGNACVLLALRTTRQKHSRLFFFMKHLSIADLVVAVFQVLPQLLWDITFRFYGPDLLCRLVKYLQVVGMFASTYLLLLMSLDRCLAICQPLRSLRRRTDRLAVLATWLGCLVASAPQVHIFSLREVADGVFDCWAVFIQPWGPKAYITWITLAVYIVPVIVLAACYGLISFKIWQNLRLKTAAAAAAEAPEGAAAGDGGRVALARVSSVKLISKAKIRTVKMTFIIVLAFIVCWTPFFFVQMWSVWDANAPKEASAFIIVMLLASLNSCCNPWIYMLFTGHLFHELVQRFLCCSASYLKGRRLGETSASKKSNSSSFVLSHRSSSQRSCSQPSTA

For `Cc1nn(C)c(C)c1NC(=O)c1ccc(S(=O)(=O)N(C)C)cc1`, the CC50 (HeLa) was > 99 µM (not active).
With `Cc1cc(C)c(/C=C2\C(=O)Nc3ccccc32)[nH]1` [SEMAXANIB] the EC50 (Vasopressin V1a receptor) was 12.1 µM (not active), the EC50 (Oxytocin receptor) was 11.5 µM (not active) and the EC50 [1] was > 300 µM (not active). The EC50 [2] was > 300 µM (not active).
For `COc1cc(C(=O)Nc2nnc(-c3sccc3C)s2)cc(OC)c1OC`, the EC50 (Estrogen receptor) was 13.2 µM (active) and the EC50 (Melanocortin receptor 4) was > 89.2 µM (inactive).
With `CC(=O)OC(C[N+]1(C)CCCCCC1)c1ccccc1` (centres undefined) the IC50 [3] was > 100 µM (inactive), the IC50 [4] was 2.4 µM (active) and the IC50 [5] was 9.62 µM (active). The IC50 [6] was 2.79 µM (active).
In the case of `Cc1cc([N+](=O)[O-])c2ccccc2[n+]1[O-]`, the IC50 [7] is reported as 3.28 µM (active), the IC50 [8] is reported as 0.22 µM (active) and the CC50 [9] is reported as < 0.16 µM (active). For the same compound, the AC50 [10] was < 0.195 µM (active), the EC50 [11] was 6.35 µM (active) and the AC50 (INS1) was 2.24 µM (active). For the same compound, the EC50 [12] was 0.097 µM (active) and the EC50 [13] was 4.65 µM (inconclusive).
